Measurements from PubChem BioAssay (NCI).
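Method: 48-hour compound exposure of cells in 96-well plates, five concentrations, linear interpolation of endpoints. TGI marks complete inhibition of growth.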

Key:
Test in all cases: inhibition of tumour cell growth, NCI panel, 48 h
HL-60(TB) leukemia = system: HL-60(TB) leukemia
RXF 393 renal = system: RXF 393 renal
HOP-62 NSCLC = system: HOP-62 NSCLC
TK-10 renal = system: TK-10 renal
PC-3 prostate = system: PC-3 prostate
MOLT-4 leukemia = system: MOLT-4 leukemia
SF-268 CNS = system: SF-268 CNS
COLO 205 colon = system: COLO 205 colon
UACC-62 melanoma = system: UACC-62 melanoma
CCRF-CEM leukemia = system: CCRF-CEM leukemia
SN12C renal = system: SN12C renal
OVCAR-4 ovarian = system: OVCAR-4 ovarian
HCT-116 colon = system: HCT-116 colon
CAKI-1 renal = system: CAKI-1 renal
K-562 leukemia = system: K-562 leukemia
MCF7 breast = system: MCF7 breast
MDA-MB-435 = system: MDA-MB-435
KM12 colon = system: KM12 colon
SW-620 colon = system: SW-620 colon
U251 CNS = system: U251 CNS
SK-MEL-28 melanoma = system: SK-MEL-28 melanoma
SF-295 CNS = system: SF-295 CNS
SK-MEL-2 melanoma = system: SK-MEL-2 melanoma
SNB-75 CNS = system: SNB-75 CNS
DU-145 prostate = system: DU-145 prostate
SNB-19 CNS = system: SNB-19 CNS
SR leukemia = system: SR leukemia
HOP-92 NSCLC = system: HOP-92 NSCLC
LOX IMVI melanoma = system: LOX IMVI melanoma
MALME-3M melanoma = system: MALME-3M melanoma
HS 578T breast = system: HS 578T breast
UACC-257 melanoma = system: UACC-257 melanoma
IGROV1 ovarian = system: IGROV1 ovarian
NCI-H460 lung = system: NCI-H460 lung
A549 NSCLC = system: A549 NSCLC
T-47D breast = system: T-47D breast
ACHN renal = system: ACHN renal
SK-MEL-5 melanoma = system: SK-MEL-5 melanoma
UO-31 renal = system: UO-31 renal
HT29 colon = system: HT29 colon
OVCAR-3 ovarian = system: OVCAR-3 ovarian
SK-OV-3 ovarian = system: SK-OV-3 ovarian
OVCAR-5 ovarian = system: OVCAR-5 ovarian
MDA-N = system: MDA-N
786-0 renal = system: 786-0 renal
A498 renal = system: A498 renal
MDA-MB-231 breast = system: MDA-MB-231 breast
M14 melanoma = system: M14 melanoma
EKVX NSCLC = system: EKVX NSCLC
NCI-H522 lung = system: NCI-H522 lung
RPMI-8226 leukemia = system: RPMI-8226 leukemia
OVCAR-8 ovarian = system: OVCAR-8 ovarian
NCI-H226 lung = system: NCI-H226 lung
BT-549 breast = system: BT-549 breast
HCC-2998 colon = system: HCC-2998 colon
NCI-H23 lung = system: NCI-H23 lung
HCT-15 colon = system: HCT-15 colon

Q: What does the source list for `O=C(O)C1CCCCC1c1c2ccc(=O)c(O)c-2oc2c(O)c(O)ccc12` (stereo not drawn)?
A: TGI (HL-60(TB) leukemia): 65.2 µM; TGI (RXF 393 renal): > 100 µM; TGI (HOP-62 NSCLC): 94.4 µM; TGI (TK-10 renal): > 100 µM; TGI (PC-3 prostate): > 100 µM; TGI (MOLT-4 leukemia): 84.4 µM; TGI (SF-268 CNS): > 100 µM; TGI (COLO 205 colon): > 100 µM; TGI (UACC-62 melanoma): > 100 µM; TGI (CCRF-CEM leukemia): 3.11 µM; TGI (SN12C renal): 39.3 µM; TGI (OVCAR-4 ovarian): 64 µM; TGI (HCT-116 colon): 28.4 µM; TGI (CAKI-1 renal): > 100 µM; TGI (K-562 leukemia): 60.6 µM; TGI (MCF7 breast): 37.5 µM; TGI (MDA-MB-435): 44.5 µM; TGI (KM12 colon): > 100 µM; TGI (SW-620 colon): 47.7 µM; TGI (U251 CNS): 24.8 µM; TGI (SK-MEL-28 melanoma): > 100 µM; TGI (SF-295 CNS): 56.4 µM; TGI (SK-MEL-2 melanoma): > 100 µM; TGI (SNB-75 CNS): > 100 µM; TGI (DU-145 prostate): > 100 µM; TGI (SNB-19 CNS): > 100 µM; TGI (SR leukemia): > 100 µM; TGI (HOP-92 NSCLC): > 100 µM; TGI (LOX IMVI melanoma): 32.6 µM; TGI (MALME-3M melanoma): > 100 µM; TGI (HS 578T breast): > 100 µM; TGI (UACC-257 melanoma): > 100 µM; TGI (IGROV1 ovarian): > 100 µM; TGI (NCI-H460 lung): > 100 µM; TGI (A549 NSCLC): 48.6 µM; TGI (T-47D breast): > 100 µM; TGI (ACHN renal): 60.1 µM; TGI (SK-MEL-5 melanoma): > 100 µM; TGI (UO-31 renal): > 100 µM; TGI (HT29 colon): > 100 µM; TGI (OVCAR-3 ovarian): > 100 µM; TGI (SK-OV-3 ovarian): > 100 µM; TGI (OVCAR-5 ovarian): > 100 µM; TGI (MDA-N): 44.9 µM; TGI (786-0 renal): 46.2 µM; TGI (A498 renal): > 100 µM; TGI (MDA-MB-231 breast): 38.1 µM; TGI (M14 melanoma): > 100 µM; TGI (EKVX NSCLC): > 100 µM; TGI (NCI-H522 lung): 67 µM; TGI (RPMI-8226 leukemia): 69.7 µM; TGI (OVCAR-8 ovarian): 88.7 µM; TGI (NCI-H226 lung): 71.5 µM

Q: For `CC(=O)OC1C(C)OC(OC(=O)C2CCC3C(C2)OC2(CC(OC(=O)/C=C/c4ccccc4)C(C)CO2)C32CO2)C(OC2OC(C)C(O)C(OC(C)=O)C2O)C1O` (stereo not drawn), which TGI (BT-549 breast) is on record?
A: < 0.0335 µM

Q: What about the TGI (RXF 393 renal) of the same compound?
A: < 0.0434 µM

Q: What about the TGI (HOP-62 NSCLC) of the same compound?
A: > 100 µM

Q: What about the TGI (TK-10 renal) of the same compound?
A: > 100 µM

Q: And the TGI (PC-3 prostate)?
A: 0.0402 µM

Q: What about the TGI (MOLT-4 leukemia) of the same compound?
A: < 0.01 µM

Q: What about the TGI (SF-268 CNS) of the same compound?
A: < 0.0136 µM

Q: And the TGI (COLO 205 colon)?
A: > 100 µM

Q: And the TGI (UACC-62 melanoma)?
A: < 0.01 µM

Q: What about the TGI (SN12C renal) of the same compound?
A: < 0.01 µM

Q: And the TGI (HCC-2998 colon)?
A: < 0.01 µM

Q: And the TGI (K-562 leukemia)?
A: > 100 µM

Q: What about the TGI (MCF7 breast) of the same compound?
A: > 100 µM

Q: And the TGI (MDA-MB-435)?
A: < 0.01 µM

Q: What about the TGI (KM12 colon) of the same compound?
A: < 0.0123 µM

Q: What about the TGI (U251 CNS) of the same compound?
A: < 0.01 µM

Q: And the TGI (SF-295 CNS)?
A: < 0.0304 µM

Q: And the TGI (SK-MEL-2 melanoma)?
A: < 0.01 µM

Q: What about the TGI (SNB-75 CNS) of the same compound?
A: < 0.01 µM

Q: And the TGI (DU-145 prostate)?
A: 0.0213 µM

Q: And the TGI (LOX IMVI melanoma)?
A: < 0.01 µM

Q: What about the TGI (MALME-3M melanoma) of the same compound?
A: < 0.01 µM

Q: And the TGI (HS 578T breast)?
A: < 0.01 µM

Q: And the TGI (NCI-H23 lung)?
A: < 0.01 µM

Q: What about the TGI (UACC-257 melanoma) of the same compound?
A: < 0.0137 µM

Q: And the TGI (IGROV1 ovarian)?
A: < 0.01 µM

Q: What about the TGI (NCI-H460 lung) of the same compound?
A: < 0.0125 µM

Q: And the TGI (ACHN renal)?
A: 1.19 µM

Q: And the TGI (HCT-15 colon)?
A: 5.8 µM

Q: What about the TGI (SK-MEL-5 melanoma) of the same compound?
A: 0.165 µM

Q: And the TGI (UO-31 renal)?
A: 2.96 µM

Q: What about the TGI (HT29 colon) of the same compound?
A: < 0.01 µM

Q: And the TGI (SK-OV-3 ovarian)?
A: > 100 µM

Q: What about the TGI (OVCAR-5 ovarian) of the same compound?
A: 0.0407 µM

Q: What about the TGI (MDA-N) of the same compound?
A: < 0.01 µM

Q: What about the TGI (A498 renal) of the same compound?
A: 0.286 µM

Q: And the TGI (M14 melanoma)?
A: 0.104 µM

Q: What about the TGI (EKVX NSCLC) of the same compound?
A: 1.27 µM

Q: What about the TGI (RPMI-8226 leukemia) of the same compound?
A: < 0.01 µM

Q: And the TGI (NCI-H226 lung)?
A: < 0.01 µM
